# Source: patent US20130281504A1, “Reduction of Microglia-Mediated Neurotoxicity by KCa3.1 Inhibition” (THE REGENTS OF THE UNIVERSITY OF CALIFORNIA, priority 2010, published 2013)
# Where two headings read alike, the source gives them in different places.
# Key:
# [1] = test system: hippocampal slices; test: AβO-treated organotypic hippocampal slice cultures; assay type: cell-based, mouse
# Protocol: Hippocampal slice cultures (400 μm-thick) were prepared from 7-day-old C57BL/6J mice as previously described (25) and cultured for 10 days in vitro before use. Neuronal damage in the slices was monitored by PI uptake following Bernardino et al (27). PI itself is not toxic to neurons (27). […] After 24 hrs, the slices were observed under a Nikon Eclipse E600 microscope and the red (630 nm) fluorescence emitted by PI taken up by damaged cells was photographed by a digital camera (SPOT RTke, SPOT Diagnostics, Sterling Heights, Mich.) with fixed exposure time.
# For immunofluorescent staining of neurons, cultures were fixed in 4% paraformaldehyde and stained with anti-PSD95 (1:200, Cell Signaling), anti-MAP2 (1:500, Chemicon) and anti-acetylated α-tubulin (1:250, Zymed). For immunofluorescent staining of microglia, cultures or hippocampal slices were fixed in 4% paraformaldehyde and stained with anti-IBA1 (1:500, Wako Chemicals USA), anti-SRA (E-20, 1:200, Santa Cruz Biotechnology), and anti-CD11b (1:200, AbD Serotec USA, Raleigh, N.C.). The fixed cells or hippocampal slices were incubated with antibodies for overnight at 4° C. followed by secondary Alexa488 conjugated anti-mouse or Alexa568 conjugated anti-rabbit antibody (1:700, Molecular probes). Immunostained images were observed under a Nikon Eclipse E600 microscope and photographed by a digital camera (SPOT RTke, SPOT Diagnostics, Sterling Heights, Mich.).
# To obtain lysates, cells or tissues were washed with ice-cold PBS and incubated with a buffer containing 50 mmol/L Tris-HCl (pH 7.4), 150 mmol/L NaCl, 2% SDS, proteinase inhibitor cocktail (Sigma), and phosphatase inhibitor cocktail (Sigma). Lysates were briefly sonncated and cleared by centrifugation at 50,000 rpm for 10 min. Equivalent amounts of protein were analyzed by Tris/HCL gel electrophoresis. Proteins were transferred to polyvinylidene difluoride membranes and probed with antibodies. Visualization was performed using enhanced chemiluminescence (ECL, Amersham Pharmacia, Piscataway, N.J.).
# Conditioned medium collected from microglia cultures (1×10^5/0.75 cm^2) and hippocampal slices treated with Aβ for 24 hrs were analyzed by the Nitric Oxide Quantization Kit according to the protocol of the manufacturer (Active Motif, Carlsbad, Calif.). Data were normalized to the amount of total protein.
# [2] = Pharmacokinetics and brain concentrations in rats (HPLC/MS); details: rat
# Protocol: At various time points following the injection approximately 100-200 μl of blood were collected from a tail nick into EDTA blood sample collection tubes. […] Blood samples were taken by cardiac puncture under deep isoflurane anesthesia. The right atrium was then cut open and 20 mL of saline slowly injected into the left ventricle to flush the blood out of the circulation. The rats were then sacrificed and brains removed. Plasma was separated by centrifugation and samples stored at −80° C. pending analysis. Plasma and homogenized brain samples were purified using C18 solid phase extraction (SPE) cartridges. […] LC/MS analysis was performed with a Hewlett-Packard 1100 series HPLC stack equipped with a Merck KGaA RT 250-4 LiChrosorb RP-18 column interfaced to a Finnigan LCQ Classic MS. The mobile phase consisted of acetonitrile and water, both containing 0.2% formic acid.
# [3] = mice, previously determined; cited from earlier work
compound,measurement,setting,value
"Clc1ccccc1C(c1ccccc1)(c1ccccc1)n1cccn1 [TRAM-34, 1-[(2-chlorophenyl)diphenylmethyl]-1H-pyrazole]",AβO-induced microglia activation in hippocampal slices,"[1]; 20 nM AβO 24 hrs, co-treatment, FIG. 7A, 7C",substantially ameliorated
same,AβO-induced NO production from hippocampal slices,"[1]; 20 μM doxycycline, 1 μM TRAM-34, FIG. 7B",prevented
same,AβO-enhanced PI uptake (neuronal damage) in hippocampal slices,"[1]; 20 μM doxycycline, 1 μM TRAM-34, FIG. 7C",ameliorated
same,AβO-induced reduction of dendritic and post-synaptic proteins in hippocampal slices,"[1]; co-treatment, FIG. 7D",substantially ameliorated
same,"NO production from hippocampal slices, compound alone",[1]; without AβO,did not affect NO production
same,Kp,"[2]; Wistar, in vivo",1.2
same,half-life,"[2]; male, Wistar, in vivo, iv, 10 mg/kg, half-life, rat plasma, calculated from elimination part of i.v. plot",~2 h
same,"total plasma and brain levels, peak","[2]; i.p. 10 mg/kg, between 30 min and 1 hour",around 2.5
same,plasma peaks,[2]; s.c. 120 mg/kg,2.5 ± 1 µM
same,half-life,[3],1 h
